This passage reports TGI and GI50 results from PubChem BioAssay (NCI).

Some test systems named below: ACHN renal; RPMI-8226 leukemia; SW-620 colon; NCI-H23 lung; SK-MEL-5 melanoma; NCI-H226 lung; KM12 colon; MOLT-4 leukemia; SK-OV-3 ovarian; TK-10 renal; SF-295 CNS; OVCAR-3 ovarian; M14 melanoma; SF-268 CNS.
Common to all, as to assay: growth of human tumour cells (NCI), 48 h

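Five compound concentrations were applied to cells in 96-well plates for 48 hours; endpoints were derived by simple linear interpolation of the resulting dose-response curve. Abbreviation: GI50, concentration required for 50% inhibition of growth. TGI denotes the concentration required for complete inhibition of growth.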 A value given as a limit tells only on which side of the number the result lay.

Take `N=c1c2c(=S)n(-c3ccccc3)c(=S)n(-c3ccccc3)c2nc(SCCCN2CCN(c3cccc(Cl)c3)CC2)n1-c1ccccc1`: the TGI in the assay with ACHN renal, in the assay on RPMI-8226 leukemia, in the assay on SW-620 colon, in the assay with NCI-H23 lung, in the assay with SK-MEL-5 melanoma and in the assay with NCI-H226 lung was more than 100 µM throughout. Moreover, the TGI in the assay on KM12 colon, in the assay on MOLT-4 leukemia, with SK-OV-3 ovarian, in the assay on TK-10 renal, in the assay on SF-295 CNS and in the assay with OVCAR-3 ovarian was more than 100 µM in each case.
On to `Cc1cc(C)c2c(c1)CC1(Cc3c(C)ccc(C)c3C1=O)C2=O` (configuration not stated), for which the TGI in the assay on ACHN renal, in the assay with RPMI-8226 leukemia, in the assay with M14 melanoma, with SW-620 colon, in the assay with SK-MEL-5 melanoma and with SF-268 CNS was more than 100 µM in each case. Further, the TGI in the assay with NCI-H226 lung, in the assay with KM12 colon, in the assay with MOLT-4 leukemia, in the assay with TK-10 renal, in the assay with SF-295 CNS and in the assay on OVCAR-3 ovarian was more than 100 µM each time.
With `CCNc1nnc(-c2nsc3ccccc23)s1`, the TGI in the assay with ACHN renal, in the assay with RPMI-8226 leukemia, in the assay on M14 melanoma, with SW-620 colon, in the assay on NCI-H23 lung and in the assay on SK-MEL-5 melanoma was more than 100 µM in each case. Further, the TGI was 80.9 µM in the assay with SF-268 CNS; more than 100 µM in the assay with KM12 colon; more than 100 µM with MOLT-4 leukemia; more than 100 µM with TK-10 renal; 57.6 µM in the assay on OVCAR-3 ovarian.
Take `Cc1ccc([N+](=O)[O-])cc1S(=O)(=O)Nc1ccc(C2=NNC(c3ccccc3O)C2)cc1` (configuration not stated): the TGI with ACHN renal is 77 µM; in the assay with RPMI-8226 leukemia, more than 100 µM; in the assay on M14 melanoma it was 51.6 µM; in the assay with SW-620 colon it was more than 100 µM; in the assay with NCI-H23 lung it was 67.7 µM; in the assay with SK-MEL-5 melanoma it was 58.6 µM. Further, the TGI is more than 100 µM in the assay on SF-268 CNS; more than 100 µM in the assay with NCI-H226 lung; 76.7 µM with KM12 colon; 96.3 µM in the assay with MOLT-4 leukemia; more than 100 µM with SK-OV-3 ovarian; more than 100 µM in the assay with TK-10 renal. Further, the TGI in the assay with SF-295 CNS was determined as 90.9 µM; in the assay with OVCAR-3 ovarian it was 43.7 µM.
Consider `CC(=O)Oc1ccc2c(c1)oc1c3ccc(OC(C)=O)cc3n(C)c(=O)c21`, for which the TGI with ACHN renal was more than 100 µM; with M14 melanoma, more than 100 µM; with SW-620 colon, more than 100 µM; with NCI-H23 lung it was more than 100 µM; in the assay on SK-MEL-5 melanoma, 16.7 µM; in the assay on SF-268 CNS it was 78.2 µM. In addition, the TGI is 53.1 µM in the assay on NCI-H226 lung; 20.6 µM in the assay with KM12 colon; more than 100 µM in the assay with MOLT-4 leukemia; more than 100 µM in the assay on SK-OV-3 ovarian; more than 100 µM in the assay on TK-10 renal; more than 100 µM in the assay with SF-295 CNS. Moreover, in the assay with OVCAR-3 ovarian, the TGI is more than 100 µM.
For `C=C1C(=O)C[C@@]23CCC[C@@]12CC(OCOC)C3` (some centres not stated), the TGI with RPMI-8226 leukemia is 9.8 µM; with SW-620 colon, 3.97 µM; in the assay on NCI-H23 lung, 11.1 µM; in the assay with SK-MEL-5 melanoma it was 13.3 µM; with SF-268 CNS, 17.5 µM; in the assay on NCI-H226 lung, 4.66 µM. In addition, the TGI with KM12 colon was determined as 9.48 µM; in the assay with MOLT-4 leukemia, 9.93 µM; in the assay with SK-OV-3 ovarian, 17.8 µM; in the assay on SF-295 CNS, 17.3 µM; in the assay with OVCAR-3 ovarian it was 6.48 µM.
For `O=C1C=CC2=[N+]([O-])C(c3ccccc3)(c3ccccc3)C(=Nc3ccccc3)C2=C1`, the TGI worked out at 3.36 µM in the assay with ACHN renal; 7.83 µM with RPMI-8226 leukemia; 3.76 µM in the assay on M14 melanoma; 3.65 µM in the assay on SW-620 colon; 5.64 µM with NCI-H23 lung; 27.2 µM in the assay with SK-MEL-5 melanoma. In addition, the TGI in the assay with SF-268 CNS turned out to be 11.4 µM; with NCI-H226 lung, 22.3 µM; in the assay with SK-OV-3 ovarian it was 31.8 µM; in the assay on TK-10 renal, 3.27 µM; in the assay on SF-295 CNS it was 27.7 µM; in the assay with OVCAR-3 ovarian it was 3.37 µM.
As to `N=C(N)c1ccc(-c2ccc(-c3ccccc3)s2)cc1`, the GI50 with ACHN renal is 1.67 µM; with M14 melanoma, 1.68 µM; with NCI-H23 lung it was 2 µM; in the assay on SK-MEL-5 melanoma it was 1.77 µM; in the assay on NCI-H226 lung it was 3.01 µM; in the assay with SK-OV-3 ovarian it was 2.42 µM. Also, the TGI in the assay with ACHN renal worked out at 3.03 µM; with M14 melanoma, 3.51 µM; in the assay with NCI-H23 lung, 4.53 µM; in the assay on SK-MEL-5 melanoma it was 3.19 µM; in the assay on NCI-H226 lung, 14.6 µM; in the assay on SK-OV-3 ovarian, 7.27 µM.
